Laboratory results as given in patent US20210087206A1, “MACROCYCLIC KINASE INHIBITORS AND THEIR USE” (TURNING POINT THERAPEUTICS, INC., priority 2017, published 2021).
pIC50: −log10 of the molar value.

How the values were obtained:
[1] = amide bond; 13-membered ring; 3 steps
BaF3 EML4-ALK = target: T1, BaF3 EML4-ALK (Homo sapiens, UniProt Q9UM73); assay: Cell proliferation assay (CellTiter-Glo); format: cell-based; details: anti-cell proliferation, 72 hours
T1 construct: The EML4-ALK gene (variant 1) was synthesized at GenScript and cloned into pCDH-CMV-MCS-EF1-Puro plasmid (System Biosciences, Inc); fused on or other part: EML4 N-terminal part (variant 1: exons 1-13, with the coiled-coil that oligomerises the fusion) fused to the intracellular part of ALK, which contains the kinase domain; Q9HC35 (Echinoderm microtubule-associated protein-like 4)
T1 sequence (Q9UM73 whole entry, stated change not applied, the tested form may be a part): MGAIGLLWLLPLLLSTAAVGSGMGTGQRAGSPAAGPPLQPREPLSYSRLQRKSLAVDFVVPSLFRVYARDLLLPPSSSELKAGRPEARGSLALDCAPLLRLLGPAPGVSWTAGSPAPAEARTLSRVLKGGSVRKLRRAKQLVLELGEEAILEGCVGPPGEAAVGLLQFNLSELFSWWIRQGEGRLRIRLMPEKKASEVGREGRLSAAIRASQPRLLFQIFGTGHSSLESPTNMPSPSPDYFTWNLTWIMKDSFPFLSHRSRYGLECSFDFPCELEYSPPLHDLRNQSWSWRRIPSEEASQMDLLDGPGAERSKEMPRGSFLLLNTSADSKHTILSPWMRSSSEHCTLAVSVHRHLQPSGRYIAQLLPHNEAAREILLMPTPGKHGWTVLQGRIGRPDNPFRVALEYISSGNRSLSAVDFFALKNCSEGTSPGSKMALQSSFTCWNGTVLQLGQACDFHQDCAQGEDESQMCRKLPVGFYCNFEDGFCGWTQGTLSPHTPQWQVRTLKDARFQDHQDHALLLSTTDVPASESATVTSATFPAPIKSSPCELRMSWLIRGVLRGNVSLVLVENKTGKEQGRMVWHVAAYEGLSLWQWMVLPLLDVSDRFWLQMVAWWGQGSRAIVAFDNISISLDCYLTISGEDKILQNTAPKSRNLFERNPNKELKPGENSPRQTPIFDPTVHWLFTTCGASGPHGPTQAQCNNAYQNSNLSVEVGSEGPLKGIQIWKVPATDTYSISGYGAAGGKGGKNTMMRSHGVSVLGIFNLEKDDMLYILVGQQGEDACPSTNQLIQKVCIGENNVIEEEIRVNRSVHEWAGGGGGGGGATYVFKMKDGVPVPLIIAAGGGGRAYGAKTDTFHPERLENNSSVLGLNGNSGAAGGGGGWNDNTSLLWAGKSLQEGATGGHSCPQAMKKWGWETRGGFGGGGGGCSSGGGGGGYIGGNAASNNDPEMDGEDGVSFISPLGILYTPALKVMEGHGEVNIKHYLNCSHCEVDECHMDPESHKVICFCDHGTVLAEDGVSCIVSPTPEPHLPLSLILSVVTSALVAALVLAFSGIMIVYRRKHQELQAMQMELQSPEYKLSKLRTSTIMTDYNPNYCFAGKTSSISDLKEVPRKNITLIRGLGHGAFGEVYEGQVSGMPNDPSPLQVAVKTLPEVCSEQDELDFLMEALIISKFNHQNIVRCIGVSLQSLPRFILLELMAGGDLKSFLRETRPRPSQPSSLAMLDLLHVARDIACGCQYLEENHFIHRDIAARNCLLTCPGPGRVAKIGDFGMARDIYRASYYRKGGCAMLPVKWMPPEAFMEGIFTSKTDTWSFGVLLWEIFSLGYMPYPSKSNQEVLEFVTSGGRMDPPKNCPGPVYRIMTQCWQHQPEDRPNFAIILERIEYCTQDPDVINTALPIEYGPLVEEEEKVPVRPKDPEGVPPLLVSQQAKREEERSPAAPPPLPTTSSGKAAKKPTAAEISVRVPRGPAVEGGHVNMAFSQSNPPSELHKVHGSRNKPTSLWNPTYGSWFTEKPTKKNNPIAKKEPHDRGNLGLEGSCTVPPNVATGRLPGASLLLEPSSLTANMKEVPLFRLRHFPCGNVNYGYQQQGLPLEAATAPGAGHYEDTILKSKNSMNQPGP
How it was run: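 Ba/F3 cells were lentivirally transduced with EML4-ALK variant 1 and selected for puromycin resistance and IL-3-independent growth. Proliferation was measured by CellTiter-Glo ATP luminescence to give IC50.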

KM12 (TPM3-TRKA) = assay: Cell proliferation assay (CellTiter-Glo); format: cell-based; details: Homo sapiens, anti-cell proliferation, 72 hours
How it was run: (§1)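 Cells seeded 24 h, then exposed to compounds for 72 h at 37° C., 5% CO2. Proliferation read by CellTiter-Glo luminescent ATP detection; IC50 from dose-response fits.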

KG-1 cell (OP2-FGFR1) = assay: Cell proliferation assay (CellTiter-Glo); format: cell-based; details: Homo sapiens, anti-cell proliferation, 72 hours
How it was run: as §1

FGFR4 = target: T2, FGFR4 (Homo sapiens, UniProt P22455); assay: Biochemical kinase assay (Reaction Biology, 33P ATP); details: 10 μM ATP
T2 construct: purchased Reaction Biology Corporation
T2 sequence (P22455 22-802): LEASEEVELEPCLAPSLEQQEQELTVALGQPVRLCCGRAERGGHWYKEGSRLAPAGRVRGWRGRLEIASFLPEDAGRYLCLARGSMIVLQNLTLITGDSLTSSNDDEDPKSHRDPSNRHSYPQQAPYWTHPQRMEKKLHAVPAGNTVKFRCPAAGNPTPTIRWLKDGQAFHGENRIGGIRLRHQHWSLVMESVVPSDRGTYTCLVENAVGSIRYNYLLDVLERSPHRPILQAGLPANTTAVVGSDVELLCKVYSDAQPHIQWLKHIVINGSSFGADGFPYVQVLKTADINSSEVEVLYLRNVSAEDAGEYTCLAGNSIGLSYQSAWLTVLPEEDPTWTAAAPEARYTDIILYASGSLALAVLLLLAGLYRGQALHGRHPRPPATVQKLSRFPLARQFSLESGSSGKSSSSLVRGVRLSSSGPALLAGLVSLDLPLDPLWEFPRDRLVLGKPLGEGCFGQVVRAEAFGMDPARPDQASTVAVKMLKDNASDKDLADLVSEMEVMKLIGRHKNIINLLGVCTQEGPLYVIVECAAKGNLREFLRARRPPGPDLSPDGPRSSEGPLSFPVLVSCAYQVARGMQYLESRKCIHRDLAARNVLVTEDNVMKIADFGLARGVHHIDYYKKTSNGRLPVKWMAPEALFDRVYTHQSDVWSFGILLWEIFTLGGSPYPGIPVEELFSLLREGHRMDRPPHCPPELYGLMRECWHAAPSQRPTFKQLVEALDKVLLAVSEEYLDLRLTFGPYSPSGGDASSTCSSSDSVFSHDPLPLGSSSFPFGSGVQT
Experimental: (§2) Biochemical Kinase Assay Method
(§3) The biochemical kinase assay was performed at Reaction Biology Corporation (www.reactionbiology.com, Malvern, Pa.) following the procedures described in the reference (Anastassiadis T, et al Nat Biotechnol. 2011, 29, 1039). Specific kinase/substrate pairs along with required cofactors were prepared in reaction buffer; 20 mM Hepes pH 7.5, 10 mM MgC2, 1 mM EGTA, 0.02% Brij35, 0.02 mg/ml BSA, 0.1 mM Na3VO4, 2 mM DTT, 1% DMSO. Compounds were delivered into the reaction, followed ˜20 min later by addition of a mixture of ATP (Sigma, St. Louis Mo.) and ^33P ATP (Perkin Elmer, Waltham Mass.) to a final concentration of 10 μM. Reactions were carried out at room temperature for 120 min, followed by spotting of the reactions onto P81 ion exchange filter paper (Whatman Inc., Piscataway, N.J.). Unbound phosphate was removed by extensive washing of filters in 0.75% phosphoric acid. […] IC50 values and curve fits were obtained using Prism (GraphPad Software).

FGFR1(V561M) = target: T3, FGFR1(V561M) (Homo sapiens, UniProt P11362, V561M); assay: as above; details: 10 μM ATP
T3 construct: purchased Reaction Biology Corporation
T3 sequence (P11362 22-822 V561M): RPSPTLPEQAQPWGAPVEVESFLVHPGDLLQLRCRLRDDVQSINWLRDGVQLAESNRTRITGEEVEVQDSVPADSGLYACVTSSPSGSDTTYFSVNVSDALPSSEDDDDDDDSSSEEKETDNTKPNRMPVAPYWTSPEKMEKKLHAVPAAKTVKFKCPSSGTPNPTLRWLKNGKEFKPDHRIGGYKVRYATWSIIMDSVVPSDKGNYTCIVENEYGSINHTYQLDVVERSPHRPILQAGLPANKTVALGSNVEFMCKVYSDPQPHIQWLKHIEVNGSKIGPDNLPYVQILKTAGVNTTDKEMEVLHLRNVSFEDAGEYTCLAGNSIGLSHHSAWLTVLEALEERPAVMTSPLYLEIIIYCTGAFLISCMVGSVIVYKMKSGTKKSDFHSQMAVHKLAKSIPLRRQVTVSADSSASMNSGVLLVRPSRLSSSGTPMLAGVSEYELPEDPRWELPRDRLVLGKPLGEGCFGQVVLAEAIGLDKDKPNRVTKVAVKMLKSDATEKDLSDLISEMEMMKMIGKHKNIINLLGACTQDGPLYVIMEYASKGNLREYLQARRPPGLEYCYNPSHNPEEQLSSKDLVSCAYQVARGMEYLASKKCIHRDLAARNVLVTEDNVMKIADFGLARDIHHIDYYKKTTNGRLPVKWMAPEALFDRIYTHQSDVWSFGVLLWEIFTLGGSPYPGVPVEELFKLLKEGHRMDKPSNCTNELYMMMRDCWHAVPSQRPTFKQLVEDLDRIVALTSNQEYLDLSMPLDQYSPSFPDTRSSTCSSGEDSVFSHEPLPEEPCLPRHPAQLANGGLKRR
Experimental: as §2, §3

ALK (L1196M) = target: T4, ALK (L1196M) (Homo sapiens, UniProt Q9UM73, L1196M); assay: as above; details: 10 μM ATP
T4 construct: purchased Reaction Biology Corporation
T4 sequence (Q9UM73 19-1620 L1196M): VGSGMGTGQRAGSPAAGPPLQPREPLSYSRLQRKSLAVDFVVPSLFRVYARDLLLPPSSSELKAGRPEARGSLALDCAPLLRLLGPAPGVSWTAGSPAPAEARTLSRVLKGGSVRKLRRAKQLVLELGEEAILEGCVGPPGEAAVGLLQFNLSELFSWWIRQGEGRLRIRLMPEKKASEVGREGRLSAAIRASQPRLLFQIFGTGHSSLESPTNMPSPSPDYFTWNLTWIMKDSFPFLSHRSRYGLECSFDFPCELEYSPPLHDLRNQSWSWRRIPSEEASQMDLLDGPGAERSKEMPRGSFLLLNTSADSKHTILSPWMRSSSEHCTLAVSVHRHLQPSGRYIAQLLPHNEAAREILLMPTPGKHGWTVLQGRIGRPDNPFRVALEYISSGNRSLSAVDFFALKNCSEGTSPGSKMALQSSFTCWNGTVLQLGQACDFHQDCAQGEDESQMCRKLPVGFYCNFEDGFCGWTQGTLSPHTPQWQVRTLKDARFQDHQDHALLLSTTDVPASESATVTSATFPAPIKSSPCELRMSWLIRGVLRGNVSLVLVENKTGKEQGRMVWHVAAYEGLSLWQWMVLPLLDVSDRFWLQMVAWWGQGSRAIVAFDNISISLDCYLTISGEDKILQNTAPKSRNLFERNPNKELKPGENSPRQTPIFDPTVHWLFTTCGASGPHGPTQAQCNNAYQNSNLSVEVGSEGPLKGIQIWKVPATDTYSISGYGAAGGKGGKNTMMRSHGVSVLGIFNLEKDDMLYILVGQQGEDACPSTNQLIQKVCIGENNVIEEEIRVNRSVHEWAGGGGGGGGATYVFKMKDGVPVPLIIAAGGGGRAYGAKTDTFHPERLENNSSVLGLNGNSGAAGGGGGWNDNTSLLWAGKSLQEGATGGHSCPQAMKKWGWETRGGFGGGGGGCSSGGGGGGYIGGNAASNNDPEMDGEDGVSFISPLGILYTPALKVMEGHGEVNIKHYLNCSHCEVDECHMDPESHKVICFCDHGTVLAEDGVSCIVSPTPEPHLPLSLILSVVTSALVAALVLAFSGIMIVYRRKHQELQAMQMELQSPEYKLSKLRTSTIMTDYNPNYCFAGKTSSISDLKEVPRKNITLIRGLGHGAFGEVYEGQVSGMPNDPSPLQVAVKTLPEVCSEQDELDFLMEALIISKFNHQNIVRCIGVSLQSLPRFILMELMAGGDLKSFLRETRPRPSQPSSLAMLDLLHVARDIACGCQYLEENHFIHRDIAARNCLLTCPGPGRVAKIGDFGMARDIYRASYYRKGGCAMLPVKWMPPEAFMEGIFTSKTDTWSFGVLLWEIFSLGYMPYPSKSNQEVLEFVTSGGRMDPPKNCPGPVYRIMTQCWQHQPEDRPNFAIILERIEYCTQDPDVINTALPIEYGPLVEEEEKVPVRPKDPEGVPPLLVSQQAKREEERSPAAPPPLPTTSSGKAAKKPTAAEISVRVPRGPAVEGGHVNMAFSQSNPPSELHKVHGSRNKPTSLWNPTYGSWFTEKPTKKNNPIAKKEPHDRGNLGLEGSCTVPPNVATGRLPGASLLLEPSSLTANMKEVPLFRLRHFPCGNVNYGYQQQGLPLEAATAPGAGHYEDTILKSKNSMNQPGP
Experimental: as §2, §3

ROS1 = target: T5, ROS1 (Homo sapiens, UniProt P08922); assay: as above; details: 10 μM ATP
T5 construct: purchased Reaction Biology Corporation
Experimental: as §2, §3

FGFR2 = target: T6, FGFR2 (Homo sapiens, UniProt P21802); assay: as above; details: 10 μM ATP
T6 construct: purchased Reaction Biology Corporation
Experimental: as §2, §3

FGFR1 = target: T7, FGFR1 (Homo sapiens, UniProt P11362); assay: as above; details: 10 μM ATP
T7 construct: purchased Reaction Biology Corporation
T7 sequence (P11362 22-822): as the sequence (P11362 22-822 V561M) above, with M540V counted along it
Experimental: as §2, §3

ROS1 (G2032R) = target: T8, ROS1 (G2032R) (Homo sapiens, UniProt P08922, G2032R); assay: as above; details: 10 μM ATP
T8 construct: purchased Reaction Biology Corporation
Experimental: as §2, §3

FGFR3 = target: T9, FGFR3 (Homo sapiens, UniProt P22607); assay: as above; details: 10 μM ATP
T9 construct: purchased Reaction Biology Corporation
Experimental: as §2, §3

ALK (G1202R) = target: T10, ALK (G1202R) (Homo sapiens, UniProt Q9UM73, G1202R); assay: as above; details: 10 μM ATP
T10 construct: purchased Reaction Biology Corporation
T10 sequence (Q9UM73 19-1620 G1202R): as the sequence (Q9UM73 19-1620 L1196M) above, with M1178L, G1184R counted along it
Experimental: as §2, §3

ALK = target: T11, ALK (Homo sapiens, UniProt Q9UM73); assay: as above; details: 10 μM ATP
T11 construct: purchased Reaction Biology Corporation
T11 sequence (Q9UM73 19-1620): as the sequence (Q9UM73 19-1620 L1196M) above, with M1178L counted along it
Experimental: as §2, §3

Row | Molecule | pIC50 (BaF3 EML4-ALK) | pIC50 (KM12 (TPM3-TRKA)) | pIC50 (KG-1 cell (OP2-FGFR1)) | further results
1 | (5R,13S)-9-fluoro-5,13-dimethyl-4,5,14,15-tetrahydro-3H,7H-19,1-(metheno)[1,4]oxazepino[3,4-i]pyrazolo[4,3-f]pyrido[3,2-l][1,4,8,10]oxatriazacyclotridecin-16(13H)-one |  |  |  | ring closure, isolated yield [1]: 79%
2 | (4R,13R)-8-fluoro-4,13-dimethyl-3,4,13,14-tetrahydro-6H-18,1-(metheno)[1,4]oxazino[3,4-i]pyrazolo[4,3-f]pyrido[3,2-l][1,4,8,10]oxatriazacyclotridecin-15(12H)-one |  |  |  | ring closure, isolated yield [1]: 86%
3 | CC[C@@H]1COc2cn3ncc4c3nc2N1Cc1cc(F)cnc1OCC1(CC1)NC4=O [Compound 72, (4′R)-4′-ethyl-8′-fluoro-3′H,4′H,6′H,12′H,14′H,15′H-spiro[cyclopropane-1,13′-[2,11]dioxa[5,10,14,17,18,19]hexaaza-[18,1](metheno)[1,4]oxazino-[3,4-i]pyrazolo[4,3-f]pyrido[3,2-l][1,4,8,10]oxatriazacyclotridecin]-15′-one] | 7.73 | > 9.70 | 8.41 | 
4 | C[C@@H]1COc2cn3ncc4c3nc2N1Cc1cc(F)cnc1O[C@@H](C)CNC4=O [Compound 8, (4R,12S)-8-fluoro-4,12-dimethyl-3,4,13,14-tetrahydro-6H-18,1-(metheno)[1,4]oxazino[3,4-i]pyrazolo[4,3-f]pyrido[3,2-l][1,4,8,10]oxatriazacyclotridecin-15(12H)-one] | 6.99 | 9.70 | 7.11 | 
5 | C[C@@H]1COc2ncc(F)cc2CN2c3nc4c(cnn4cc3OC[C@H]2c2ccccc2)C(=O)N1 [Compound 46, (4R,13R)-8-fluoro-13-methyl-4-phenyl-3,4,13,14-tetrahydro-6H-18,1-(metheno)[1,4]oxazino[3,4-i]pyrazolo[4,3-f]pyrido[3,2-1][1,4,8,10]oxatriazacyclotridecin-15(12H)-one] | 5.98 | > 9.70 | 9.70 | 
6 | C[C@@H]1COc2ncc(F)cc2CN2c3nc4c(cnn4cc3OC[C@H]2C)C(=O)N1 [Compound 14, (4R,13R)-8-fluoro-4,13-dimethyl-3,4,13,14-tetrahydro-6H-18,1-(metheno)[1,4]oxazino[3,4-i]pyrazolo[4,3-f]pyrido[3,2-l][1,4,8,10]oxatriazacyclotridecin-15(12H)-one] | 7.86 | > 9.70 | 7.47 | 
7 | C[C@@H]1COc2cn3ncc4c3nc2N1Cc1cc(F)cc(F)c1O[C@@H](C)CNC4=O [Compound 7, (4R,12S)-8,10-difluoro-4,12-dimethyl-3,4,13,14-tetrahydro-6H-18,1-(metheno)[1,4]oxazino[3,4-i]pyrazolo[4,3-f][1,4,8,10]benzoxatriazacyclotridecin-15(12H)-one] | 7.73 | 9.70 | 6.84 | IC50 (FGFR4): 88.4 nM; IC50 (FGFR1(V561M)): 137 nM; IC50 (ALK (L1196M)): 0.358 nM; IC50 (ROS1): 0.111 nM; IC50 (FGFR2): 14.7 nM; IC50 (FGFR1): 53 nM; IC50 (ROS1 (G2032R)): 0.678 nM; IC50 (FGFR3): 30.5 nM; IC50 (ALK (G1202R)): 1.25 nM; IC50 (ALK): 0.853 nM
8 | C[C@@H]1COc2cn3ncc4c3nc2N(Cc2cc(F)ccc2O[C@@H](C)CNC4=O)C1 [Compound 20, (4S,13S)-9-fluoro-4,13-dimethyl-4,5,14,15-tetrahydro-3H,7H-19,1-(metheno)[1,4]oxazepino[3,4-i]-pyrazolo[4,3-f][1,4,8,10]benzo-xatriazacyclotridecin-16(13H)-one] | 5.31 | 8.29 | 5.62 | 
9 | C[C@H]1CNC(=O)c2cnn3cc4c(nc23)N(Cc2cc(F)cnc2O1)C1(CC1)CO4 [Compound 27, (12′S)-8′-fluoro-12′-methyl-3′H,6′H,12′H,13′H,14′H,15′H-spiro[cyclopropane-1,4′-[2,11]-dioxa[5,10,14,17,18,19]hexaaza-[18,1](metheno)[1,4]oxazino[3,4-i]pyrazolo[4,3-f]pyrido[3,2-l] [1,4,8,10]oxatriazacyclotridecin]-15′-one] | 6.22 | > 9.70 | 5.45 | 
10 | C[C@@H]1COc2cn3ncc4c3nc2N1Cc1cc(F)cnc1O[C@@H]1CC[C@@H](C1)NC4=O [Compound 86, (6S,9R,17R)-13-fluoro-17-methyl-6,7,8,9,17,18-hexahydro-15H-6,9-methano-1,20-(metheno)[1,4]-oxazino[4,3-e]pyrazolo[3,4-h]-pyrido[2,3-b][1,5,7,11]oxatriaza-cyclopentadecin-4(5H)-one] | 8.14 | > 9.70 | 8.57 | 
